Tested on: IFNα-induced pSTAT5 (pY694) in CD3 positive cells of human whole blood
Experiment: IFNα-Induced STAT Phosphorylation in Human Whole Blood
Format: cell-based
Settings: 1 h compound incubation, 1000 U/mL recombinant human IFNα A/D for 15 min, pSTAT5 in CD3 positive population, read-out: Human WB IFNα-Induced Stat Phosph. (IC50)
Procedure, shortened: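 Read-out is median fluorescence intensity of pSTAT5 (pY694) in the CD3-positive gate, by flow cytometry after fix/lyse and permeabilization. Before that, whole human blood anticoagulated with EDTA or ACD-A received compound for an hour and 1000 U/mL IFNα A/D for 15 min.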

Row | Structure (SMILES) | IC50
1 | [2H]C([2H])([2H])NC(=O)c1nnc(NC(=O)C2CC2)cc1Nc1cccc(-c2cnn(CCNC(C)=O)c2)c1OC [Example 556, 4-((3-(1-(2-acetamidoethyl)-1H-pyrazol-4-yl)-2-methoxyphenyl)amino)-6-(cyclopropanecarboxamido)-N-(methyl-d3)pyridazine-3-carboxamide] | 1070 nM
2 | [2H]C([2H])([2H])NC(=O)c1nnc(NC(=O)C2CC2)cc1Nc1cccc(-c2cnn(CCNC(C)=O)c2)c1OC [Example 563, 4-((3-(1-(2-acetamidoethyl)-1H-pyrazol-4-yl)-2-methoxyphenyl)amino)-6-(cyclopropanecarboxamido)-N-(methyl-d3)pyridazine-3-carboxamide] | 3120 nM

Same assay, conditions: Homo sapiens, 1 h compound incubation, 1000 U/mL recombinant human IFNα A/D for 15 min, pSTAT5 in CD3 positive population, read-out: Human WB IFNα-Induced Stat Phosph. (IC50)

Row | Structure (SMILES) | IC50
3 | [2H]C([2H])([2H])NC(=O)c1cnc(Nc2ccc(OC)nn2)cc1Nc1cc(F)cc(-c2cc(C(=O)N(C)C)n(C)n2)c1OC [Example 551] | 50 nM
4 | [2H]C([2H])([2H])NC(=O)c1nnc(Nc2cc(C)n(C)n2)cc1Nc1cc(F)cc(-c2cc(C(=O)NS(C)(=O)=O)n(C)n2)c1OC [Example 552] | 3600 nM
5 | [2H]C([2H])([2H])NC(=O)c1cnc(Nc2cnn(C)n2)cc1Nc1cc(F)cc(-c2cc(C(=O)N(C)C)n(C)n2)c1OC [Example 553] | 120 nM
6 | [2H]C([2H])([2H])NC(=O)c1nnc(Nc2ccc(C)nn2)cc1Nc1cc(F)cc(-c2cc(C(=O)N(C)C)n(C)n2)c1OC [Example 555] | 40 nM
7 | [2H]C([2H])([2H])NC(=O)c1nnc(NC(=O)C2CC2)cc1Nc1cccc(-c2cnn(CCN)c2)c1OC [Example 557] | 720 nM
8 | [2H]C([2H])([2H])NC(=O)c1nnc(NC(=O)C2CC2)cc1Nc1cccc(-c2cnn(CCNC(=O)CO)c2)c1OC [Example 558] | 1300 nM
9 | [2H]C([2H])([2H])NC(=O)c1nnc(NC(=O)C2CC2)cc1Nc1cccc(-c2cnn(CCNC(=O)CC#N)c2)c1OC [Example 559] | 830 nM
10 | [2H]C([2H])([2H])NC(=O)c1nnc(NC(=O)C2CC2)cc1Nc1cccc(-c2cnn(CCNS(C)(=O)=O)c2)c1OC [Example 560] | 2210 nM
11 | [2H]C([2H])([2H])NC(=O)c1nnc(NC(=O)C2CC2)cc1Nc1cccc(-c2cnn(CCNC(=O)COC)c2)c1OC [Example 562] | 650 nM
12 | [2H]C([2H])([2H])NC(=O)c1nnc(Nc2cnc(OC)cn2)cc1Nc1cccc(-c2csc(C(=O)N3CCOCC3)n2)c1OC [Example 564] | > 10000 nM
13 | [2H]C([2H])([2H])NC(=O)c1nnc(Nc2ccc(OC)nn2)cc1Nc1cccc(-c2csc(C(=O)NCCOC)n2)c1OC [Example 565] | 250 nM
14 | [2H]C([2H])([2H])NC(=O)c1nnc(NC(=O)C2CC2)cc1Nc1cccc(-c2csc(C(=O)NCCOC)n2)c1OC [Example 566] | 680 nM
15 | [2H]C([2H])([2H])NC(=O)c1cnc(Nc2ccc(OC)nn2)cc1Nc1cccc(-c2csc(C(=O)NCCOC)n2)c1OC [Example 567] | 700 nM
16 | [2H]C([2H])([2H])NC(=O)c1cnc(NC(=O)C2CC2)cc1Nc1cccc(-c2csc(C(=O)NCCOC)n2)c1OC [Example 569] | 590 nM
17 | [2H]C([2H])([2H])NC(=O)c1nnc(Nc2cnc(OC)cn2)cc1Nc1cccc(-c2csc(C(=O)NCCOC)n2)c1OC [Example 570] | 930 nM
18 | [2H]C([2H])([2H])NC(=O)c1nnc(Nc2cc(C(C)(C)O)ccn2)cc1Nc1cccc(-c2csc(C(=O)NCCOC)n2)c1OC [Example 571] | 1760 nM
19 | [2H]C([2H])([2H])NC(=O)c1cnc(Nc2cc(C(C)(C)O)ccn2)cc1Nc1cc(F)cc(-c2csc(C(=O)NCCOC)n2)c1OC [Example 573] | 2000 nM
20 | [2H]C([2H])([2H])NC(=O)c1cnc(NC(=O)C2CC2)cc1Nc1cc(F)cc(-c2csc(C(=O)NCCOC)n2)c1OC [Example 574] | 700 nM
21 | COc1c(Nc2cc(NC(=O)C3CC3)ncc2C(N)=O)cccc1-c1nc(CN2CCOCC2)no1 [Example 576, 6-(cyclopropanecarboxamido)-4-((2-methoxy-3-(3-(morpholinomethyl)-1,2,4-oxadiazol-5-yl)phenyl)amino)nicotinamide] | 13 nM
22 | COc1c(Nc2cc(NC(=O)C3CC3)ncc2C(N)=O)cccc1-c1nc(CN2CCN(S(C)(=O)=O)CC2)no1 [Example 577] | 19 nM
23 | COc1c(Nc2cc(NC(=O)C3CC3)ncc2C#N)cccc1-c1nc(CN2CCN(S(C)(=O)=O)CC2)no1 [Example 578] | 4340 nM
